This note sets out measurements from patent publication US10231453B2, “5-substituted imidazole derivatives” (BAYER CROPSCIENCE AKTIENGESELLSCHAFT, priority 2015, dated 2019).

One series deals with Alternaria solani. Nature of the series: In vivo preventive Alternaria test (tomatoes), Example H. The following applies: 72 h, 100 ppm of active ingredient, preventive spray, evaluated 3 days after inoculation, read-out: efficacy.
Consider `OC(Cc1ccccc1)(Cn1cncc1Cl)C1(Cl)CC1` (stereo not drawn) [Example I-39], for which the pest or weed control at 100 ppm was 90 to 100%.

In a further series the test system is Leptosphaeria nodorum. Description: In vivo preventive Leptosphaeria nodorum test (wheat), Example N. The following applies: Parastagonospora nodorum, 192 h, 500 ppm of active ingredient, preventive spray, evaluated 8 days after inoculation, read-out: efficacy. The source says:
After the spray coating has been dried, the plants are sprayed with a spore suspension of Leptosphaeria nodorum.
On to `OC(Cc1ccccc1)(Cn1cncc1Cl)C1(Cl)CC1` (stereo not drawn) [Example I-39], for which the pest or weed control at 500 ppm was 70 to 79%.

The subject of another series is Pyricularia oryzae. Nature of the series: whole plant or invertebrate. The class given is in vivo. The following applies: 192 h, read-out: efficacy.
As to `OC(Cc1ccccc1)(Cn1cncc1Cl)C1(Cl)CC1` (stereo not drawn) [Example I-39], the pest or weed control at 500 ppm lay in the range of 70 to 79%.

The next series concerns Blumeria graminis fsp. hordei. Nature of the series: In vivo preventive Blumeria test (barley), Example K. The following applies: 168 h, 500 ppm of active ingredient, preventive spray, evaluated 7 days after inoculation, read-out: efficacy. The source says:
After the spray coating has been dried, the plants are dusted with spores of Blumeria graminis fsp. hordei.
In the case of `OC(Cc1ccccc1)(Cn1cncc1Cl)C1(Cl)CC1` (stereo not drawn) [Example I-39], the pest or weed control at 500 ppm was in the range of 90 to 100%.

A further series concerns Fusarium nivale (var. majus). Nature of the series: In vivo preventive Fusarium nivale (var. majus) test (wheat), Example O. The following applies: Microdochium nivale, 120 h, 500 ppm of active ingredient, preventive spray, evaluated 5 days after inoculation, read-out: efficacy. The source says:
After the spray coating has been dried, the plants are slightly injured by using a sandblast and afterwards they are sprayed with a conidia suspension of Fusarium nivale (var. majus).
With `OC(Cc1ccccc1)(Cn1cncc1Cl)C1(Cl)CC1` (stereo not drawn) [Example I-39], the pest or weed control at 500 ppm fell in the range of 70 to 79%.

Another series deals with Fusarium graminearum. Nature of the series: whole plant or invertebrate. In kind it is in vivo. The following applies: in Hordeum vulgare, 120 h, read-out: efficacy.
`OC(Cc1ccccc1)(Cn1cncc1Cl)C1(Cl)CC1` (stereo not drawn) [Example I-39]: the pest or weed control at 500 ppm is 90 to 100%.

The subject of another series is Botrytis cinerea. Description: In vivo preventive test on Botrytis cinerea (grey mould) on gherkin, Examples B, Q1 and R2. The following applies: Botrytis cinerea, 500 ppm of active ingredient, preventive spray, evaluated 4 to 5 days after inoculation, read-out: efficacy.
For the compound `OC(Cc1ccccc1)(Cn1cncc1Cl)C1(Cl)CC1` (stereo not drawn) [Example I-39], the pest or weed control at 500 ppm was 90 to 100%.

The next series deals with Septoria tritici. Nature of the series: In vivo preventive test on Septoria tritici (leaf spot on wheat), Examples E, Q3 and R5. The following applies: Zymoseptoria tritici, 576 h, 500 ppm of active ingredient; wheat, preventive spray, evaluated 24 days after inoculation; read-out: efficacy.
For the compound `OC(Cc1ccccc1)(Cn1cncc1Cl)C1(Cl)CC1` (stereo not drawn) [Example I-39], the pest or weed control at 500 ppm lay within 90 to 100%.

Tested on in another series: not listed separately
Nature of the series: Measurement of LogP values by HPLC on reversed phase columns (EEC directive 79/831 Annex V.A8). The following applies: method [a]: LC-UV, acidic range, 0.1% formic acid in water and acetonitrile as eluent; Table 1. In kind it is physicochemical. On the procedure: Measurement of Log P values was performed as outlined above.
For orientation: chromatographic logP means lipophilicity estimated from chromatographic retention. Low values mean a more hydrophilic compound, high ones a more lipophilic compound. The compound `OC(Cc1ccccc1)(Cn1cncc1Cl)C1(Cl)CC1` (stereo not drawn) [Example I-39] registered a chromatographic logP of 2.04.

Another series concerns Pyrenophora teres. Description: In vivo preventive test on Pyrenophora teres (net blotch on barley), Examples D, Q2 and R4. The following applies: Pyrenophora teres, 336 h, 500 ppm of active ingredient, preventive spray, evaluated 14 days after inoculation, read-out: efficacy.
In the case of `OC(Cc1ccccc1)(Cn1cncc1Cl)C1(Cl)CC1` (stereo not drawn) [Example I-39], the pest or weed control at 500 ppm was 90 to 100%.

The test system of a further series is Fusarium culmorum. Nature of the series: In vivo preventive Fusarium culmorum test (wheat), Example L. The following applies: 120 h, 500 ppm of active ingredient, preventive spray, evaluated 5 days after inoculation, read-out: efficacy. The procedure: After the spray coating has been dried, the plants are slightly injured by using a sandblast and afterwards they are sprayed with a conidia suspension of Fusarium culmorum.
The test is evaluated 5 days after the inoculation.
Turning to `OC(Cc1ccccc1)(Cn1cncc1Cl)C1(Cl)CC1` (stereo not drawn) [Example I-39], the pest or weed control at 500 ppm was 90 to 100%.

A further series relates to Puccinia recondita. Nature of the series: In vivo preventive test on Puccinia recondita (brown rust on wheat), Examples C and R3. The following applies: Puccinia recondita, 264 h; 500 ppm of active ingredient; wheat, preventive spray, evaluated 11 days after inoculation; read-out: efficacy.
In the case of `OC(Cc1ccccc1)(Cn1cncc1Cl)C1(Cl)CC1` (stereo not drawn) [Example I-39], the pest or weed control at 500 ppm lay in the range of 90 to 100%.

In another series the test system is Phakopsora pachyrhizi. Description: In vivo preventive Phakopsora test (soybeans), Example I. The following applies: 168 h, 100 ppm of active ingredient, preventive spray, evaluated 7 days after inoculation, read-out: efficacy.
Regarding `OC(Cc1ccccc1)(Cn1cncc1Cl)C1(Cl)CC1` (stereo not drawn) [Example I-39], the pest or weed control at 100 ppm lay within 90 to 100%.

Another series has as its system Sphaerotheca fuliginea. Nature of the series: In vivo preventive test on Sphaerotheca fuliginea (powdery mildew on cucurbits), Examples F and R6. The following applies: Podosphaera fuliginea, 360 h; 500 ppm of active ingredient; gherkin, preventive spray, evaluated 15 days after inoculation; read-out: efficacy.
On to `OC(Cc1ccccc1)(Cn1cncc1Cl)C1(Cl)CC1` (stereo not drawn) [Example I-39], for which the pest or weed control at 500 ppm lay within 90 to 100%.

The subject of a further series is Uromyces appendiculatus. Description: In vivo preventive test on Uromyces appendiculatus (bean rust), Examples G and R7. The following applies: 264 h, 500 ppm of active ingredient, bean, preventive spray, evaluated 11 days after inoculation, read-out: efficacy.
For `OC(Cc1ccccc1)(Cn1cncc1Cl)C1(Cl)CC1` (stereo not drawn) [Example I-39], the pest or weed control at 500 ppm was 90 to 100%.
